Data from US7745572B2, “Peptides effective in the treatment of tumors and other conditions requiring the removal or destruction of cells” (Qualcomm Incorporated, priority 2001, dated 2010).

Tested on: rat prostate
Assay: Intraprostatic infusion in rats, prostate volume and histology at 72 hours
Type: in vivo, Sprague-Dawley rats
Settings: 1 mg/mL in PBS pH 7.4 (1.0 mg/kg)
Procedure: Male Sprague-Dawley rats (300 gram weight range) were anesthetized with ether and given NTP[122] peptide #1 by intraprostatic infusion after open surgical visualization of the prostate. The injections consisted of 300 μl of NTP[122] peptide #1, 1 mg/mL in PBS pH 7.4. (1.0 mg/kg) (n=8), control injections of PBS alone (n=6), and controls with no injection (n=2). Rats were painlessly sacrificed after 72 hours. Prostate glands were dissected, fixed in 10%, buffered formalin for 24 hours, embedded in paraffin, sectioned, and stained with H & E. For each animal the entire prostate gland was embedded and sectioned. All stained sections were examined histologically and measured. For each prostate at least 4 histological sections were examined, and for each histological section two cross-sectional diameters (D) at 90° from each other were measured (total of ≧8 measurements per prostate). […]
Male Sprague-Dawley rats (300 gram weight range) were anesthetized with ether and given NTP[112] peptide #1 by intraprostatic infusion after open surgical visualization of the prostate. […] All stained sections were examined histologically and measured. For each prostate at least 4 histological sections were examined, and for each histological section two cross-sectional diameters (D) at 90° from each other were measured (total of ≧8 measurements per prostate). […]

Sequence	prostate histology (H & E)
MAQSRLTATSASRVQ (listed as Homo sapiens) [NTP[112] peptide #1]	significant cell loss and atrophy
IDQQVLSRIKLEIKRCL (listed as Homo sapiens) [NTP[122] peptide #1]	extensive loss of glandular epithelium, flattening and atrophy
